Publication PMC7032255 (Asian Journal of Pharmaceutical Sciences, 2018)
“Also recorded” adds a separate entry of the source. Where two headings read alike, the source gives them in different places.

Legend:
[1] = cited from earlier work; for oral bioavailability of cytarabine: cytarabine versus its L-valyl prodrug valcytarabine
[2] = in human; parent drug versus its prodrug LY2140023; cited from earlier work
[3] = background value, no reference given; cited from earlier work
hPEPT1 = target: T1, hPEPT1 (Homo sapiens, UniProt P46059); experiment: Uptake by MDCK-hPEPT1 cells versus MDCK mock cells; type: cell-based; conditions: Fig. 6A
T1 sequence (P46059 1-708): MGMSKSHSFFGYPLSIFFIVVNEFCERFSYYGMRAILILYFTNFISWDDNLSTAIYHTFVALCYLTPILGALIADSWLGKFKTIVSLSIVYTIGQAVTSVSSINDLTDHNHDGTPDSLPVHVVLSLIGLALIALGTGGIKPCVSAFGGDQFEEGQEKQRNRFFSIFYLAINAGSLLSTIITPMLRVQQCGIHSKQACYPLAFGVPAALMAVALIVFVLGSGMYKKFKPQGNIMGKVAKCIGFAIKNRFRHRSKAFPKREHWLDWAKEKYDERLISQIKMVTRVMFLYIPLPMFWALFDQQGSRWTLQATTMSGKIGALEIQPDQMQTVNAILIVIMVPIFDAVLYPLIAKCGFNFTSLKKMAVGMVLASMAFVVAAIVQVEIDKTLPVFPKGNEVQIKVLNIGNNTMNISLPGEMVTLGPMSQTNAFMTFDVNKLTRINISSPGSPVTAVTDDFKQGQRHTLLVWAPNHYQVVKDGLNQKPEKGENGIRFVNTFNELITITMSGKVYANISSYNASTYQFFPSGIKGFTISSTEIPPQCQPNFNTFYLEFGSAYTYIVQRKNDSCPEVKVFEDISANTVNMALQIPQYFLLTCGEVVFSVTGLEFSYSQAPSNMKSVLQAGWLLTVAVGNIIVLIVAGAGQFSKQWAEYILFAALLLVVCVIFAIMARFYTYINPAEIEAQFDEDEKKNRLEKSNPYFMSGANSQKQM

[4] = rat plasma, intravenous injection 8 mg/kg
[5] = rat plasma, oral administration, 160 mg/kg calculated as peramivir

**Q.** With `CC(C)C(N)C(=O)OCC1OC(n2ccc(N)nc2=O)C(O)C1O` (centres unmarked) [valcytarabine] as the compound, how does the “oral bioavailability of cytarabine” value [1] read?
**A.** Its value is 60.0%.

**Q.** For `N[C@@]1(C(=O)O)CS(=O)(=O)[C@H]2[C@H](C(=O)O)[C@H]21` [LY404039], which “oral bioavailability of the parent drug LY404039” value [2] is on record?
**A.** Its value is 6.0%.

**Q.** For `CSCC[C@H](N)C(=O)N[C@@]1(C(=O)O)CS(=O)(=O)[C@H]2[C@H](C(=O)O)[C@H]21` [LY2140023], which “oral bioavailability of the parent drug LY404039” value [2] is on record?
**A.** Its value is 68.0%.

**Q.** For `CCC(CC)[C@H](NC(C)=O)[C@@H]1[C@H](O)[C@@H](C(=O)O)C[C@H]1N=C(N)N` [Peramivir], which “AUC0-∞ of peramivir” value [4] is on record?
**A.** The value was 3604.8 ng·h/mL.

**Q.** And the t1/2 of peramivir [4]?
**A.** Its t1/2 of peramivir is 3.9 h.

**Q.** What about the “AUC0-∞ of peramivir” value [5] of the same compound?
**A.** The value was 2955.9 ng·h/mL.

**Q.** What about the Cmax of peramivir [5] of the same compound?
**A.** Its Cmax of peramivir is 771.6 ± 278.3 ng/mL.

**Q.** And the Tmax of peramivir [5]?
**A.** The Tmax of peramivir was 1.0 h.

**Q.** What about the t1/2 of peramivir [5] of the same compound?
**A.** The t1/2 of peramivir was 3.2 h.

**Q.** And the “F, absolute oral bioavailability of peramivir” value (rat, oral 160 mg/kg calculated as peramivir versus i.v. peramivir 8 mg/kg)?
**A.** The value was 4.1%.

**Q.** And the oral bioavailability ([1]; peramivir given orally, background value, reference not given)?
**A.** The oral bioavailability was 3%.

**Q.** What about the “log P” value [3] of the same compound?
**A.** The value was −1.4.

**Q.** And the “PEPT1-mediated transport (uptake in MDCK-hPEPT1 versus mock cells)” value (hPEPT1)?
**A.** The value was “no PEPT1-mediated transport; also recorded: not (statistically) significant different between MDCK-hPEPT1 and MDCK mock cells”.

**Q.** For `Nc1ccn([C@@H]2O[C@H](CO)[C@@H](O)[C@@H]2O)c(=O)n1` [cytarabine], which “oral bioavailability of cytarabine” value [1] is on record?
**A.** Its value is 21.8%.
